Measured values as given in patent US12377104B1, “Methods for treating a fatty liver disease” (Madrigal Pharmaceuticals, Inc., priority 2024, dated 2025).
“And” between values parts separate entries of the source, which are not always exact repeats. Identical values can stand only once.

System: adults with biopsy-confirmed NASH
Test: MAESTRO-NASH: lipids, lipoproteins and lipid particles
Type: in vivo, human
Conditions: 100 mg; for ApoB, Least Squares Mean % CFB / ApoB, Least Squares Mean % CFB Difference from PBO / LDL-C, Least Squares Mean % CFB / LDL-C, Least Squares Mean % CFB Difference from PBO: baseline LDL-C >100 mg/dL; for Lp(a), LS mean % CFB / Lp(a), LS mean % CFB difference from PBO: baseline Lp(a) >10 nmol/L; for Triglycerides, LS mean % CFB / Triglycerides, LS mean % CFB difference from PBO: baseline triglycerides >150 mg/dL
Description: Within the study, we provided analyses based on an analysis of covariance (ANCOVA) model after having performed single imputation for LDL-C as described in the statistical analysis plan (SAP). The ANCOVA model estimated least-squares means using treatment and baseline LDL-C as covariate.
To this end, the Week 24 LDL-C assessment and assessments at any visit in which LDL-C is measured (Weeks 4, 12, 16, 20, 24, 28, 32, 36, 40, 44, 48, and 52) that has been impacted by kit shortage at the prior visit (unavailability of […] (IP) during the 4 weeks preceding the visit due to the COVID-19 pandemic as indicated on the electronic case report form (eCRF)), were considered missing and were imputed from an unaffected assessment at surrounding visits or using data from subjects unaffected by this intercurrent event as described in Section 11.2 of the SAP. In summary, single imputation utilizing adjacent and valid […] measurements were imputed.
For missing lipid data that are still missing after the single imputation approach described, those missing lipid data were imputed using the non-missing lipid values (including the singly imputed data) based on missing at random (MAR)-based (MI). When applying the MAR-based […], data were imputed separately by randomized treatment group and baseline stratification factors.

CC(C)c1cc(Oc2c(Cl)cc(-n3nc(C#N)c(=O)[nH]c3=O)cc2Cl)n[nH]c1=O [Resmetirom, 2-(3,5-dichloro-4-((5-isopropyl-6-oxo-1,6-dihydropyridazin-3-yl)oxy)phenyl)-3,5-dioxo-2,3,4,5-tetrahydro-1,2,4-triazine-6-carbonitrile]
Apolipoprotein B level, difference from placebo (wk 24): −20.2 percentage points
Apolipoprotein B level, least-squares mean percent change from baseline (wk 24): −19.8 ± 1.3%
LDL cholesterol level, difference from placebo (wk 24): −16.4 percentage points
LDL cholesterol level, least-squares mean percent change from baseline (wk 24): −16.3% and −16.3 ± 1.7%
Lipoprotein(a) level, difference from placebo (wk 24): −35.1 percentage points
Triglyceride level, difference from placebo (wk 24): −19.1 percentage points
Lipoprotein(a) level, least-squares mean percent change from baseline (wk 24, baseline lipoprotein(a) >10 nmol per liter): −35.9 ± 4.0%
Triglyceride level, least-squares mean percent change from baseline (wk 24, baseline triglyceride >150 mg per deciliter): −21.7 ± 4.3%
ApoB, LS mean % CFB (Week 24): -19.8%
ApoB, LS mean % CFB difference from PBO (Week 24): −20.2%
ApoCIII, Least Squares Mean % CFB (Week 24): −14.1%
ApoCIII, Least Squares Mean % CFB Difference from PBO (Week 24): −22.2%
HDL-C, Least Squares Mean % CFB (Week 24): 2.9%
HDL-C, Least Squares Mean % CFB Difference from PBO (Week 24): 1.2%
LDL-C, LS mean % CFB (Week 24): −16.3%
LDL-C, LS mean % CFB difference from PBO (Week 24): −16.4%
Non-HDL-C, Least Squares Mean % CFB (Week 24): −17.7%
Non-HDL-C, Least Squares Mean % CFB Difference from PBO (Week 24): −17.9%
ApoB, Least Squares Mean % CFB (Week 24): −22.1%
ApoB, Least Squares Mean % CFB Difference from PBO (Week 24): −18.4%
LDL-C, Least Squares Mean % CFB (Week 24): −20.6%
LDL-C, Least Squares Mean % CFB Difference from PBO (Week 24): −14.7%
ApoCIII, Least Squares Mean % CFB (Week 52): −17.1%
ApoCIII, Least Squares Mean % CFB Difference from PBO (Week 52): −26.9%
HDL particle size, Least Squares Mean % CFB (Week 52): 0.40%
HDL particle size, Least Squares Mean % CFB Difference from PBO (Week 52): 0.10%
HDL particles, Least Squares Mean % CFB (Week 52): 2.3%
HDL particles, Least Squares Mean % CFB Difference from PBO (Week 52): 0.69%
HDL-C, Least Squares Mean % CFB (Week 52): 4.6%
HDL-C, Least Squares Mean % CFB Difference from PBO (Week 52): 2.0%
LDL particle size, Least Squares Mean % CFB (Week 52): −0.35%
LDL particle size, Least Squares Mean % CFB Difference from PBO (Week 52): −0.39%
LDL particles, Least Squares Mean % CFB (Week 52): −20.0%
LDL particles, Least Squares Mean % CFB Difference from PBO (Week 52): −19.4%
Large HDL particles, Least Squares Mean % CFB (Week 52): 4.5%
Large HDL particles, Least Squares Mean % CFB Difference from PBO (Week 52): −7.7%
Large LDL particles, Least Squares Mean % CFB (Week 52): 55.6%
Large LDL particles, Least Squares Mean % CFB Difference from PBO (Week 52): −30.8%
Large VLDL and chylomicron particles, Least Squares Mean % CFB (Week 52): −9.1%
Large VLDL and chylomicron particles, Least Squares Mean % CFB Difference from PBO (Week 52): −20.2%
Medium HDL particles, Least Squares Mean % CFB (Week 52): 130.2%
Medium HDL particles, Least Squares Mean % CFB Difference from PBO (Week 52): 65.2%
Medium VLDL particles, Least Squares Mean % CFB (Week 52): −27.4%
Medium VLDL particles, Least Squares Mean % CFB Difference from PBO (Week 52): −143.2%
Non-HDL-C, Least Squares Mean % CFB (Week 52): −22.1%
Non-HDL-C, Least Squares Mean % CFB Difference from PBO (Week 52): −21.7%
Small LDL particles, Least Squares Mean % CFB (Week 52): 6.6%
Small LDL particles, Least Squares Mean % CFB Difference from PBO (Week 52): −15.0%
Small VLDL particles, Least Squares Mean % CFB (Week 52): 26.3%
Small VLDL particles, Least Squares Mean % CFB Difference from PBO (Week 52): −15.3%
VLDL and chylomicron particles, Least Squares Mean % CFB (Week 52): −20.2%
VLDL and chylomicron particles, Least Squares Mean % CFB Difference from PBO (Week 52): −28.4%
VLDL and chylomicron triglycerides, Least Squares Mean % CFB (Week 52): −17.9%
VLDL and chylomicron triglycerides, Least Squares Mean % CFB Difference from PBO (Week 52): −22.8%
VLDL particle size, Least Squares Mean % CFB (Week 52): 3.4%
VLDL particle size, Least Squares Mean % CFB Difference from PBO (Week 52): 1.4%
ApoB, Least Squares Mean % CFB (Week 52): −26.6%
ApoB, Least Squares Mean % CFB Difference from PBO (Week 52): −20.1%
LDL-C, Least Squares Mean % CFB (Week 52): −27.1%
LDL-C, Least Squares Mean % CFB Difference from PBO (Week 52): −17.5%
Lp(a), LS mean % CFB (week 24): −35.9%
Lp(a), LS mean % CFB difference from PBO (week 24): 35.1%
Triglycerides, LS mean % CFB (week 24): −21.7%
Triglycerides, LS mean % CFB difference from PBO (week 24): −19.1%
ApoB, LS mean % CFB (week 52): -22.3%
ApoB, LS mean % CFB difference from PBO (week 52): −22.9%
LDL-C, LS mean % CFB (week 52): −19.5%
LDL-C, LS mean % CFB difference from PBO (week 52): −19.0%
Lp(a), LS mean % CFB (week 52): −37.5%
Lp(a), LS mean % CFB difference from PBO (week 52): −32.4%
Triglycerides, LS mean % CFB (week 52): −28.4%
Triglycerides, LS mean % CFB difference from PBO (week 52): −24.9%
